Results taken from patent US11918581B2, “Combination therapy comprising JAK pathway inhibitor and rock inhibitor” (Incyte Corporation, priority 2021, dated 2024).
“Also recorded” adds a separate entry of the source. Read-outs that look alike come from different tables or passages of the source.

Legend:
[1] = target: human JAK1 (a.a. 837-1142) (Homo sapiens, UniProt P23458); test: In vitro JAK kinase assay (HTRF), JAK1; format: biochemical; conditions: 1 mM ATP
Description: (§1) The catalytic activity of JAK1, JAK2, or JAK3 was assayed by measuring the phosphorylation of a biotinylated peptide. The phosphorylated peptide was detected by homogenous time resolved fluorescence (HTRF). […] Reactions are carried out at room temperature for 1 hour and then stopped with 20 μL 45 mM EDTA, 300 nM SA-APC, 6 nM Eu-Py20 in assay buffer (Perkin Elmer, Boston, MA). Binding to the Europium labeled antibody takes place for 40 minutes and HTRF signal was measured on a Fusion plate reader (Perkin Elmer, Boston, MA).

[2] = test system: sclerodermatous chronic GVHD; test: Example 1: murine model of sclerodermatous chronic GVHD, itacitinib and belumosudil; format: in vivo, C57Bl/6 mice; conditions: PO d21-56; itacitinib 120 mg/kg BID, belumosudil 150 mg/kg QD; FIG. 1
Description: The effects of therapeutic dosing of a selective JAK1 inhibitor (itacitinib), a ROCK2 inhibitor (belumosudil), and a combination the selective JAK1 inhibitor and ROCK2 inhibitor (itacitinib+belumosudil) combination were tested in a murine model of sclerodermatous chronic GVHD. Sclerodermatous chronic GVHD was induced in C57Bl/6 mice using a single acute dose of 8.5 Gy of total body irradiation on Day −1. On Day 0, recipient mice were given an intravenous injection of a combination of splenocytes and bone marrow cells from donor LP/J mice. Starting at day 21, animals were dosed with vehicle, itacitinib, belumosudil, or the combination of both itacitinib and belumosudil (P.O., B.I.D, see Table 2). All animals were monitored on a daily basis to record weight change, survival and GVHD score (see Table 3). On days 33, 36, 39, 42 and 45 all animals were photographed under isoflurane anesthesia to assess disease severity. [table] [table]

[3] = test system: GVHD; conditions: 60 mg/kg per day or 120 mg/kg per day; prophylactic and therapeutic dosing; cited from earlier work
[4] = test system: acute GVHD (aGVHD); conditions: patients, cited from earlier work
[5] = target: human JAK2 (a.a. 828-1132) (Homo sapiens (Human), UniProt O60674); test: In vitro JAK kinase assay (HTRF), JAK2; format: biochemical; conditions: JAK2/JAK1 IC50 ratio, 1 mM ATP
Chain of human JAK2 (a.a. 828-1132) (O60674 828-1132): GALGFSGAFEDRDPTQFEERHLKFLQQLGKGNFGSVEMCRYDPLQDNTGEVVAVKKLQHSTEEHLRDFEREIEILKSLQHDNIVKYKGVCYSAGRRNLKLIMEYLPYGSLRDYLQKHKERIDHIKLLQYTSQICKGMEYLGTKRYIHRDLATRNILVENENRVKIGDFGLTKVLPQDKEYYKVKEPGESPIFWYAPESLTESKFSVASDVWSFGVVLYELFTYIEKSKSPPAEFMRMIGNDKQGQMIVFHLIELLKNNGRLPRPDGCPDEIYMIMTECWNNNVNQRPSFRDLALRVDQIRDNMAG
Description: as §1

[6] = test system: sclerodermatous chronic GVHD; test: Example 2: murine model of sclerodermatous chronic GVHD, ruxolitinib and belumosudil; format: in vivo, C57Bl/6 mice; conditions: PO d21-56; ruxolitinib 60 mg/kg BID, belumosudil 150 mg/kg QD; FIG. 3
Description: The effects of therapeutic dosing of a JAK1/2 inhibitor (ruxolitinib), a ROCK2 inhibitor (belumosudil), and a combination of the JAK1/2 inhibitor and ROCK2 inhibitor (ruxolitinib+belumosudil) combination were tested in a murine model of sclerodermatous chronic GVHD. Sclerodermatous chronic GVHD was induced in C57Bl/6 mice using a single acute dose of 8.5 Gy of total body irradiation on Day −1. On Day 0, recipient mice were given an intravenous injection of a combination of splenocytes and bone marrow cells from donor LP/J mice. Starting at day 21, animals were dosed with vehicle, ruxolitinib, belumosudil, or the combination of both ruxolitinib and belumosudil (P.O., B.I.D, see Table 4). All animals were monitored on a daily basis to record weight change, survival and GVHD score (see Table 5). On days 33, 36, 39, 42 and 45 all animals were photographed under isoflurane anesthesia to assess disease severity. [table] [table]

[7] = test system: chronic GVHD (cGVHD); conditions: patients; cited from earlier work
[8] = test system: lung cGVHD; conditions: cited from earlier work

| Structure (SMILES) | IC50 [1] [nM] | GVHD score compared to vehicle-treated animals [2] | GVHD score [3] | clinical efficacy in acute GVHD ([4]; listed as itacitinib) | JAK2/JAK1 [5] | GVHD score compared to vehicle-treated animals [6] | clinical efficacy in chronic GVHD [7] | increase in FEV1 ([8]; 1 patient) [%] | responses ([8]; 5 pediatric patients (4 evaluable) with lung cGVHD) | patients able to wean steroids completely ([8]; 5 pediatric patients) | decrease of the steroid requirement ([8]; final patient) [%] | clinical efficacy in acute GVHD [4] |
| --- | --- | --- | --- | --- | --- | --- | --- | --- | --- | --- | --- | --- |
| N#CCC1(n2cc(-c3ncnc4[nH]ccc34)cn2)CN(C2CCN(C(=O)c3ccnc(C(F)(F)F)c3F)CC2)C1 [Compound 1, {1-{1-[3-Fluoro-2-(trifluoromethyl)isonico-tinoyl]piperidin-4-yl}-3-[4-(7H-pyrrolo[2,3-d]pyrimidin-4-yl)-1H-pyrazol-1-yl]azetidin-3-yl}acetonitrile] | < 10 | reduction in GVHD scores | improvement in the GVHD score | clinical efficacy; also recorded: significant clinical activity | >10 |  |  |  |  |  |  |  |
| CC(C)NC(=O)COc1cccc(-c2nc(Nc3ccc4[nH]ncc4c3)c3ccccc3n2)c1 [belumosudil, 2-(3-(4-((1H-indazol-5-yl)amino)quinazolin-2-yl)phenoxy)-N-isopropylacetamide, reference compound] |  | reduction in GVHD scores |  |  |  | no benefit |  |  |  |  |  |  |
| N#CC[C@H](C1CCCC1)n1cc(-c2ncnc3[nH]ccc23)cn1 [ruxolitinib, (R)-3-(4-(7H-pyrrolo[2,3-d]pyrimidin-4-yl)-1H-pyrazol-1-yl)-3-cyclopentylpropanenitrile] |  |  |  |  |  | numerical reduction in GVHD scores | clinical efficacy | 9 | 2 | Four out of five | > 50 | clinical efficacy |
